# “And” between values parts separate entries of the source, which are not always exact repeats. Equal entries are not always repeated.
# Assays:
# intact male cats [1] = assay: PK/PD preclinical study in 15-week-old male cats: penile spines, behaviour, puberty, reversal (Example 13); type: in vivo, cat; conditions: treated at 15 weeks of age
# From the text: On D14, the three spare cats were removed from the study. Five+3 female cats (Group 3), pubescent at study start, were included in the study solely to assess the reproductive behavior of male cats. They were not treated with the implant. • Duration: 18 Study Months post-injection (PI) (D502/Week 72, i.e., 16.5 calendar months)
# prepubertal female dogs = assay: Delay of puberty onset in prepubertal female dogs (Example 14); type: in vivo, dog
# From the text: The aim of this study was to evaluate the delay of puberty onset in prepubertal female dogs. As known the puberty begins with the setting up of several parameters: • Increasing number of receptors in central nervous system (CNS) and gonads • Desensitization of hypothalamus/pituitary towards estrogens • Ripening of the gonads and the secondary sexual organs • Follicle ripening, spermatogenesis
# in vivo [2] = conditions: male, dog, 4.7 mg
# cat = assay: Safety study in cat, high dose; type: in vivo
# in vivo [3] = type: in vivo, dog; conditions: male, dog, in vivo, 4.7 mg
# testosterone, LH and FSH = assay: in vivo; type: in vivo, dog; conditions: assessed graphically
# male cats = assay: Cat field studies 1 and 2: suppression of fertility, reversibility, behaviour, safety (Example 12); type: in vivo
# From the text: The efficacy and safety of the re-implantation was followed-up for these supplementary 12 months, i.e. for a total of 24 months.
# The observation schedule was as follows: • Study 1: V1: Day −14 to −7; V2: Day 0; V3: 1.5 months±3 days; V4: 3 months±5 days, V5: 6 months±5 days, V6: 9 months±5 days; V7: 12 months #5 days; • Study 2: V8: 12 months±3 days; V9: 13.5 months±3 days; V10: 15 months±5 days; V11: 18 months±5 days; V12: 21 months±5 days; V13: 24 months±5 days.
# Regarding the enrolment criteria, in both studies the criteria were as the following: • Domestic Cats • Age >3 MONTHS old or >15 MONTHS in Study 2 • Intact Indoor males • Client-owned (including shelter cats/rehomed by foster families)
# In these studies the following primary endpoints were measured: • For Study 1: the suppression of fertility (Testosterone≤0.10 ng/ml* from V4 until V7*-3 to 12 months) • Study 2: the suppression of fertility (Testosterone≤0.10 ng/mL*from V8 until V13 (12 to 24 months) and the time to reversion effect. […]
# male dogs = conditions: cited from earlier work
# [4] = in vivo
# Method: Samples were collected from 10 intact male cats treated with Suprelorin® 4.7 implant. Samples (based on a plasma volume of 150 μL, treated with K2-EDTA as anticoagulant) were analyzed by a LC-MS/MS method after a solid extraction phase using μElution Oasis® WCX plates. The compound (13C, 15N)-Leu (7)-deslorelin was used as a standard. The calibration range was 4 pg/mL-2000 pg/mL.
# intact male cats [5] = assay: Testicular size by calipers (Example 7); type: in vivo, cat; conditions: treated cats
# [6] = dog, in vivo
# prepubertal bitches = conditions: cited from earlier work
# testosterone = assay: Correlation between deslorelin and testosterone concentration (Example 4); type: in vivo, cat; conditions: 16 male cats, 4.7 mg implant; assessed graphically
# Method: The serum concentration of testosterone was measured according to the protocol detailed in example 2, point 2.1.
# The plasmatic concentration of deslorelin was measured according to the protocol detailed in example 1, point 1.1.
# [7] = parameters: species or system cat; conditions: in vivo
# Method: • study period: D0-560 (18 months)· • n=20 adults, sexually mature intact male cats • blinded, randomized • Suprelorin® group: n=16=>4.7 mg Suprelorin® SC, neck • Control group: n=4=>0.5 ml saline SC, neck
# Blood samples were collected from 16 healthy, intact male cats that had received a deslorelin implant. Samples were analyzed using a validated liquid chromatography coupled to tandem mass spectrometry (LC-MS/MS) method after solid extraction using Oasis® WCX uElution plate. […] Concentrations measured below the lower limit of quantification (LLOQ) of 4 pg/mL were reported as BLQ (Below the Limit of Quantification).
# Non-compartmental pharmacokinetic analysis of individual deslorelin concentrations in feline plasma was performed using Phoenix® software (WinNonlin 8.0, NLME 1.6, Certara L. P., Pharsight, St. Louis, MO, USA) to estimate the pharmacokinetic parameters of deslorelin.
smiles,measurement,setting,value
CCNC(=O)[C@@H]1CCCN1C(=O)[C@H](CCCN=C(N)N)NC(=O)[C@H](CC(C)C)NC(=O)[C@@H](Cc1c[nH]c2ccccc12)NC(=O)[C@H](Cc1ccc(O)cc1)NC(=O)[C@H](CO)NC(=O)[C@H](Cc1c[nH]c2ccccc12)NC(=O)[C@H](Cc1cnc[nH]1)NC(=O)[C@@H]1CCC(=O)N1 [deslorelin],Duration of delay of puberty onset,intact male cats [1],at least 1 year
same,Findings in prepubertal female dogs,prepubertal female dogs; with 1 implant,"no disturbance of body development, the vulva size was normal, but delayed epiphyseal closure"
same,Findings in prepubertal female dogs,prepubertal female dogs; with 3 implants every 4.5 Mo,vulva stayed juvenile and the effect was comparable to prepubertal castration
same,level at 10584 h,in vivo [2],2 pg/mL
same,Safety findings,cat,neither serious adverse events nor live threatening events
same,level at 5376 h,in vivo [3],12 ± 10.4 pg/mL
same,Deslorelin concentration below which testosterone/LH/FSH concentrations started to increase,"testosterone, LH and FSH",12 pg/mL and < 12 pg/mL
same,Duration of effective chemical castration,male cats; male cats,at least 12 months
same,Onset of efficacy in behavioral reduction,male cats; sexual behaviors,7 to 31 days
same,Presence of deslorelin,"male dogs; dog, in vivo",2.5 months
same,Duration of observed effect,male dogs; dogs,at least 6 months
same,Persistent pharmacological effect by plasma testosterone,male dogs; following administration,at least 12 months
same,Time deslorelin remains in the blood,[4],up to 497 days
same,Effect on testicular volume,intact male cats [5],induced a decrease in testicular volume
same,Study day until which plasma deslorelin was quantifiable,[6],441
same,Delay of puberty,prepubertal bitches; prepubertal bitch,at least 4.5 months
same,"Progesterone (P4), mean",prepubertal bitches; prepubertal bitches,0.6 ± 0.2 ng/mL
same,Deslorelin concentration below which testosterone started to increase,testosterone,< 12 pg/mL
same,Time deslorelin remains present in the blood,[7],up to 560 days

# — patent US20260014227A1, “DESLORELIN USE IN CHEMICAL CASTRATION OF A NON-HUMAN MAMMAL RELATED TO PK/PD INTERACTION” (priority 2022, published 2026)
